Measured values taken from publication PMC9387934, “Randomized single oral dose phase 1 study of safety, tolerability, and pharmacokinetics of Iminosugar UV-4 Hydrochloride (UV-4B) in healthy subjects” (PLoS Neglected Tropical Diseases, 2022).
Where a name gives a salt, the structure may show the parent alone.

Assay: Phase 1a single ascending dose study: UV-4 in pooled urine, urinary recovery and renal clearance
Type: in vivo, human
Conditions: for CL renal: human, po; for Cumulative Amount Ae(0-last): corresponds to Ae(0-48); for Cumulative Percent fe(0-last): corresponds to fe(0-48)
Experimental: Serial blood samples were collected at pre-dose (0 hour) and 0.5, 1, 1.5, 2, 2.5, 3, 4, 6, 9, 12, 18, 24, 36, and 48 hours post-dose for assessment of UV-4 concentrations in plasma. Pooled urine samples were collected at pre-dose (-12 to 0 hour) and from 0 to 6, 6 to 12, 12 to 24, and 24 to 48 hours post-dose for assessment of UV-4 concentrations in urine. Plasma and urine concentrations of UV-4 were determined by means of validated, sensitive, and specific high-performance liquid chromatography/tandem mass spectrometric (LC-MS/MS) assays. UV-4 plasma and urine concentrations and PK parameters were listed and summarized by dose, as appropriate. Only the 48 subjects who received active investigational product were included in the PK analysis population.
8.2.3 Specimen Preparation, Handling, and Shipping
8.2.3.1 Instructions for Specimen Preparation, Handling, and Storage
The collected PK blood samples (2 mL) will be placed on ice after blood draw, and within 1 hour centrifuged at room temperature at approximately 3000 revolutions per minute for 15 minutes. Plasma will then be harvested and split into 4 aliquots of approximately 250 μ L and stored frozen at -20°C until shipped.
Urine samples (approximately 10 mL) for determination of UV-4 concentrations in urine will be taken from the total volume provided during each collection period. The total volume of each urine collection will be recorded along with the start/stop time for each urine collection interval.
Analysis of plasma and urine for UV-4 will be performed by the qualified bioanalytical laboratory, Quintiles Bioservices, Inc., Ithaca, New York 14950. Instructions for the proper preparation, handling, storage and shipping of specimens will be provided separately in a study-specific laboratory manual (i.e., Biopacket).
8.2.3.2 Specimen Shipment […]
The following single-dose urine PK parameters will be estimated from the UV-4 urine concentration-time data collected, as appropriate:
Ae Amount of UV-4 excreted in urine unchanged, calculated for each collection interval and cumulatively across intervals fe Fraction of UV-4 excreted in urine unchanged, calculated for each collection interval and cumulatively across intervals […]
Additional UV-4 PK parameters may be calculated at the discretion of the […]
Plasma concentrations and plasma and urine PK parameters will be summarized by treatment using descriptive statistics, as appropriate. Figures for the arithmetic mean (and SD) concentration-time data will be presented for all doses on both a linear and semi-logarithmic scale. Individual concentration-time data will be graphically presented on linear and semi-logarithmic scales. Scatter plots of individual and geometric mean PK parameters versus dose will be presented. Additional graphical presentations of PK data may be added at the discretion of the PK analyst.
Dose proportionality of Cmax, AUC(0-last), and AUC(0-inf) will be assessed graphically and statistically using the power model approach with the logarithm of PK parameters AUC(0-inf) and Cmax as the dependent variables and the logarithm of the dose as the independent variable: ([AUC(0-inf), AUC(0-last), or Cmax]=α *doseβ).
11.4.7 Deviation from Original Analysis Plan
Deviations from the formal statistical analysis plan will be noted in the final Clinical Study

[1] = urine, Cohort 1, 3 mg single oral dose, Ar Mean
[2] = urine, Cohort 1, 3 mg single oral dose, Median
[3] = urine, Cohort 2, 10 mg single oral dose, Ar Mean
[4] = urine, Cohort 2, 10 mg single oral dose, Median
[5] = urine, Cohort 3, 30 mg single oral dose, Ar Mean
[6] = urine, Cohort 3, 30 mg single oral dose, Median
[7] = urine, Cohort 4, 90 mg single oral dose, Ar Mean
[8] = urine, Cohort 4, 90 mg single oral dose, Median

COCCCCCCCCCN1C[C@H](O)[C@@H](O)[C@H](O)[C@H]1CO [UV-4B, N-(9’-methoxynonyl)-1-deoxynojirimycin hydrochloride]
fe(0-last) (3 mg single oral dose, Ar Mean): 39.8%
CL renal (both sexes, urine and plasma, 3 mg, 3 mg single oral dose, Ar Mean): 242 mL/min
CL renal (both sexes, urine and plasma, 3 mg, 3 mg single oral dose, Geo Mean): 238 mL/min
CL renal (both sexes, urine and plasma, 1000 mg, 1000 mg single oral dose, Ar Mean): 198 mL/min
CL renal (both sexes, urine and plasma, 1000 mg, 1000 mg single oral dose, Geo Mean): 195 mL/min
CL renal (both sexes, urine, 10 mg, 10 mg single oral dose, Geo Mean): 190 mL/min
CL renal (both sexes, urine, 30 mg, 30 mg single oral dose, Ar Mean): 210 mL/min
CL renal (both sexes, urine, 30 mg, 30 mg single oral dose, Geo Mean): 208 mL/min
CL renal (both sexes, urine, 90 mg, 90 mg single oral dose, Ar Mean): 228 mL/min
CL renal (both sexes, urine, 90 mg, 90 mg single oral dose, Geo Mean): 227 mL/min
CL renal (both sexes, urine, 180 mg, 180 mg single oral dose, Ar Mean): 233 mL/min
CL renal (both sexes, urine, 180 mg, 180 mg single oral dose, Geo Mean): 232 mL/min
CL renal (both sexes, urine, 360 mg, 360 mg single oral dose, Ar Mean): 235 mL/min
CL renal (both sexes, urine, 360 mg, 360 mg single oral dose, Geo Mean): 228 mL/min
CL renal (both sexes, urine, 720 mg, 720 mg single oral dose, Ar Mean): 185 mL/min
CL renal (both sexes, urine, 720 mg, 720 mg single oral dose, Geo Mean): 182 mL/min
CL renal (urine, 10 mg, 10 mg single oral dose, Ar Mean): 195 mL/min
By-Interval Amount Ae(0-6) [1]: 0.607 mg
By-Interval Amount Ae(6-12) [1]: 0.215 mg
By-Interval Amount Ae(12-24) [1]: 0.202 mg
By-Interval Amount Ae(24-48) [1]: 0.170 mg
Cumulative Amount Ae(0-12) [1]: 0.822 mg
Cumulative Amount Ae(0-24) [1]: 1.02 mg
Cumulative Amount Ae(0-last) [1]: 1.19 mg
By-Interval Amount Ae(0-6) [2]: 0.624 mg
By-Interval Amount Ae(6-12) [2]: 0.216 mg
By-Interval Amount Ae(12-24) [2]: 0.230 mg
By-Interval Amount Ae(24-48) [2]: 0.173 mg
By-Interval Percent fe(0-6) [2]: 20.8%
By-Interval Percent fe(6-12) [2]: 7.19%
By-Interval Percent fe(12-24) [2]: 7.65%
By-Interval Percent fe(24-48) [2]: 5.75%
Cumulative Amount Ae(0-12) [2]: 0.892 mg
Cumulative Amount Ae(0-24) [2]: 1.08 mg
Cumulative Percent fe(0-12) [2]: 29.7%
Cumulative Percent fe(0-24) [2]: 36.0%
Cumulative Amount Ae(0-last) [2]: 1.23 mg
Cumulative Percent fe(0-last) [2]: 40.9%
By-Interval Amount Ae(0-6) [3]: 2.67 mg
By-Interval Amount Ae(6-12) [3]: 0.859 mg
By-Interval Amount Ae(12-24) [3]: 0.608 mg
By-Interval Amount Ae(24-48) [3]: 0.503 mg
By-Interval Percent fe(0-6) [3]: 26.7%
By-Interval Percent fe(6-12) [3]: 8.59%
By-Interval Percent fe(12-24) [3]: 6.08%
By-Interval Percent fe(24-48) [3]: 5.03%
Cumulative Amount Ae(0-12) [3]: 3.53 mg
Cumulative Amount Ae(0-24) [3]: 4.13 mg
Cumulative Percent fe(0-12) [3]: 35.3%
Cumulative Percent fe(0-24) [3]: 41.3%
Cumulative Amount Ae(0-last) [3]: 4.64 mg
Cumulative Percent fe(0-last) [3]: 46.4%
By-Interval Amount Ae(0-6) [4]: 2.77 mg
By-Interval Amount Ae(6-12) [4]: 0.883 mg
By-Interval Amount Ae(12-24) [4]: 0.635 mg
By-Interval Amount Ae(24-48) [4]: 0.503 mg
By-Interval Percent fe(0-6) [4]: 27.7%
By-Interval Percent fe(6-12) [4]: 8.83%
By-Interval Percent fe(12-24) [4]: 6.35%
By-Interval Percent fe(24-48) [4]: 5.03%
Cumulative Amount Ae(0-12) [4]: 3.71 mg
Cumulative Amount Ae(0-24) [4]: 4.34 mg
Cumulative Percent fe(0-12) [4]: 37.1%
Cumulative Percent fe(0-24) [4]: 43.4%
Cumulative Amount Ae(0-last) [4]: 4.82 mg
Cumulative Percent fe(0-last) [4]: 48.2%
By-Interval Amount Ae(0-6) [5]: 10.6 mg
By-Interval Amount Ae(6-12) [5]: 2.45 mg
By-Interval Amount Ae(12-24) [5]: 1.61 mg
By-Interval Amount Ae(24-48) [5]: 0.887 mg
By-Interval Percent fe(0-6) [5]: 35.3%
By-Interval Percent fe(6-12) [5]: 8.16%
By-Interval Percent fe(12-24) [5]: 5.36%
By-Interval Percent fe(24-48) [5]: 2.96%
Cumulative Amount Ae(0-12) [5]: 13.0 mg
Cumulative Amount Ae(0-24) [5]: 14.6 mg
Cumulative Percent fe(0-12) [5]: 43.4%
Cumulative Percent fe(0-24) [5]: 48.8%
Cumulative Amount Ae(0-last) [5]: 15.5 mg
Cumulative Percent fe(0-last) [5]: 51.7%
By-Interval Amount Ae(0-6) [6]: 10.5 mg
By-Interval Amount Ae(6-12) [6]: 2.47 mg
By-Interval Amount Ae(12-24) [6]: 1.55 mg
By-Interval Amount Ae(24-48) [6]: 0.96 mg
By-Interval Percent fe(0-6) [6]: 34.9%
By-Interval Percent fe(6-12) [6]: 8.24%
By-Interval Percent fe(12-24) [6]: 5.14%
By-Interval Percent fe(24-48) [6]: 3.20%
Cumulative Amount Ae(0-12) [6]: 12.9 mg
Cumulative Amount Ae(0-24) [6]: 14.6 mg
Cumulative Percent fe(0-12) [6]: 43.0%
Cumulative Percent fe(0-24) [6]: 48.7%
Cumulative Amount Ae(0-last) [6]: 15.5 mg
Cumulative Percent fe(0-last) [6]: 51.7%
By-Interval Amount Ae(0-6) [7]: 38.1 mg
By-Interval Amount Ae(6-12) [7]: 6.05 mg
By-Interval Amount Ae(12-24) [7]: 3.89 mg
By-Interval Amount Ae(24-48) [7]: 1.61 mg
By-Interval Percent fe(0-6) [7]: 42.2%
By-Interval Percent fe(6-12) [7]: 6.72%
By-Interval Percent fe(12-24) [7]: 4.32%
By-Interval Percent fe(24-48) [7]: 1.79%
Cumulative Amount Ae(0-12) [7]: 44.1 mg
Cumulative Amount Ae(0-24) [7]: 48.0 mg
Cumulative Percent fe(0-12) [7]: 49.0%
Cumulative Percent fe(0-24) [7]: 53.3%
Cumulative Amount Ae(0-last) [7]: 49.6 mg
Cumulative Percent fe(0-last) [7]: 55.1%
By-Interval Amount Ae(0-6) [8]: 39.3 mg
By-Interval Amount Ae(6-12) [8]: 6.36 mg
